# Measured values: patent US8148392B2, “2-indolyl imidazo [4,5-d] phenanthroline derivatives and their use in the treatment of cancer” (Lorus Therapeutics Inc., priority 2005, dated 2012)
# Where two headings read alike, the source gives them in different places.
# Assays:
# [1] = test system: human colon carcinoma HT-29 cells; experiment: XTT cell proliferation assay, HT-29; assay type: cell-based; details: Homo sapiens, HT-29, XTT, read-out: IC50
# Protocol: The ability of compounds of Formula I to inhibit the proliferation of human colon carcinoma HT-29 cells was tested as follows. HT-29 colon carcinoma cells used in this example and subsequent examples were maintained as a monolayer in a growth medium; McCoy's 5A modified medium (Sigma, St. Louis, Mo.), supplemented with 2 mM L-glutamine (Gibco, Grand Island, N.Y.), 10% fetal bovine serum (FBS) (Multicell, WISENT Inc. St-Bruno, QC), antibiotic-antimycotic (Multicell), at 37° C. in a 5% CO2-humidified incubator. Cells were transferred onto 150 mm tissue culture plates and grown until sub-confluency (70-80%) prior to their use. The in vitro antiproliferative activity of compounds was evaluated by incubating the cells with varying concentrations of the compounds as shown in Table 1 for 6-7 days. The efficacy of these compounds in this cell proliferation assay was measured based in the ability of live cells to reduce the tetrazolium salt XTT to orange colored compounds of formazan (XTT cell proliferation kit II, Roche Applied Science, Montreal, QC).
# The ability of compounds of Formula I to inhibit the proliferation of human colon carcinoma HT-29 cells was tested as described above in Example 13.
# Cell growth inhibition IC50 (μM) by compounds of Formula I was tested on various cancer cell types by XTT cell proliferation assay. The growth inhibitory effects of the compounds of Formula I as shown below for the melanoma cell line SK-MEL-2 were reproducible by Lorus Therapeutics Inc.
# [2] = test system: normal cell lines PrEC, HMEC, WI38 and cancer cell lines DU145, MDA-MB-435, HT-29; experiment: Cancer cell selectivity, IC90 in normal versus cancer cell lines (XTT); assay type: cell-based, human; details: average IC90 of all normal / average IC90 of all cancer cell lines, 6 to 7 days
# Excerpt: An exemplary method of assessing the differential sensitivity between normal and cancer cells for a compound has been described by Vassilev et al. (Anti-Cancer Drug Design (2001) 16:7). This method involves the comparison of IC90 values, i.e. the molar concentration of a test compound required to cause 90% growth inhibition of exponentially growing cells. Thus, the IC90 values for candidate compounds can be evaluated in various cancer cell lines (such as those outlined above) and normal cells (such as HUVEC and/or WI38 cells) and compared. IC90 values can be measured using a variety of standard techniques as known in the art. Cancer cell selectivity is calculated as a ratio between the average IC90 for all normal cell lines and the average IC90 for all cancer cell lines. Compounds with an IC90 ratio (normal/cancer) of >4 are considered to be selective for cancer cells (L. T. Vassilev et al., Anti-cancer Drug Design, 2001, 16: 7-17).
# The normal cells lines used were PrEC (prostate), HMEC (breast), and WI38 (lung fibroblast) cell lines and the cancer cells lines were DU145 (prostate), MDA-MB-435 (breast), HT-29 (colon). IC90 values were also determined for the controls doxorubicin and etoposide. The cells were cultured as generally described in Example 13. Various concentrations of the compounds were incubated with the cells for 6 to 7 days, and the number of proliferating cells was measured using the XTT assay. Cancer cell selectivity was calculated as a ratio between the average IC90 for all normal and the average IC90 for all cancer cell lines.
# [3] = assay type: in vivo; details: i.p. twice per day for 1 week
# Protocol: To test the sub-acute toxicity of the compounds of Formula I, female mice were injected with the compounds and toxicity was evaluated based on mortality, changes in behaviour, appearance and weight. Briefly, ICR normal female mice (5-6 weeks old; n=33) weighing about 0.020 kg in body weight, were injected with various compounds at 100 mg/kg and 50 mg/kg or with the vehicle alone (Lutrol (M68, micronized)). Groups of 3 ICR female mice were injected with one intra-peritoneal (i.p.) injection of 250 μl of each compound at 4.0 mg/ml twice per day (100 mg/kg) for 1 week (Group I); or with one intra-peritoneal (i.p.) injection of 250 μl of each compound at 2.0 mg/ml twice per day (50 mg/kg) for 1 week (Group II), or with one intra-peritoneal (i.p.) injection of 250 μl of lutrol vehicle control twice per day for 1 week (Control Group).
# The compounds to be tested were prepared to provide enough for one week at concentrations of 4.0 mg/ml and 2.0 mg/ml. Briefly, 50 mg of each compound was dissolved in 1.25 ml of 100% DMSO and diluted with 6.25 ml of Lutrol (30% in water) and 5 ml water, to prepare a solution of 4 mg/ml compound in 15% Lutrol in water. Next, 4 ml of each prepared solution was further diluted with 4 ml of 15% Lutrol in water to provide the 2.0 mg/ml solution of each compound. For the vehicle control solution, 8 ml of 15% Lutrol in water was prepared. Compounds at concentrations of 4.0 mg/ml and 2.0 mg/ml and the vehicle control were administered as described above.
# supercoiled plasmid DNA = experiment: In vitro DNA cleavage assay; assay type: biochemical; details: 25 μM compound, 10 μM CuSO4, 100 μM ascorbic acid, 37° C., 30 minutes
# Protocol: Compound 3 was tested for its ability to cleave plasmid DNA in vitro in the presence of copper and the reducing agent ascorbic acid. Experiments were performed in a total of 20 μl, containing 10 mM NaH2PO4/Na2HPO4 buffer (pH 6.7), 1 μg of supercoiled plasmid DNA, 100 μM ascorbic acid, 25 μM drug compound (or vehicle), and 10 μM of CuSO4.5H20. The reaction mixture was incubated at 37° C. for 30 minutes, and 1 μl of 0.1 M EDTA was added to terminate the reaction. DNA loading buffer was added, and reactions were run at 80V for 80 minutes on a 1% agarose gel containing ethidium bromide.
# To determine whether ions other than copper could suffice, DNA cleavage reactions were also carried out in the presence of zinc or iron. Reactions were performed as above, in the presence of 25 μM of CuSO4.5H20, ZnCl2, or FeCl2.4H20. […] Note that copper alone in the presence of ascorbic acid can shift the ratio of supercoiled DNA to open circular DNA.
# To determine the ratios of compound to copper at which compound 3 was effective, reactions were performed as in FIG. 22A. The ratios of compound 3 to copper of 3:1, 2.5:1, 2:1, 1.5:1, and 1:1, as shown in FIG. 23 were achieved by maintaining the concentration of Cu constant at 10 μM, and varying the concentration of compound 3. The ratios of compound 3 to Cu of 1:1.5, 1:2, 1:2.5, and 1:3, were achieved by maintaining the concentration of compound 3 constant at 10 μM, and varying the concentration of copper.
# Other compounds of Formula I, compounds 5, 7, 9 and 13 were also tested for their ability to cleave DNA at a ratio of 2.5:1 to copper (FIG. 23). Ratios of compound 3:copper as indicated, plus concentrations of copper in the absence of compound 3 were used in the DNA cleavage assay as described above.
compound,measurement,setting,value
c1ccc(-c2[nH]c3ccccc3c2-c2nc3c4cccnc4c4ncccc4c3[nH]2)cc1 [Compound 9],IC50,"[1]; 6-7 days, Table 3",300 nM
same,IC50,"[1]; as Example 13, Table 7",0.3 µg/mL
same,Normal/cancer IC90 ratio,[2],>5.6
same,Sub-acute toxicity,[3]; 50 mg/Kg,−
same,Sub-acute toxicity,[3]; 100 mg/Kg,+
same,cleavage of plasmid DNA,supercoiled plasmid DNA,capable of cleaving DNA
